Measured values reported in US9890117B2, “Benzamide compounds and related methods of use” (Northwestern University, priority 2012, dated 2018).
Values after ≈ are worked out from the molar mass of the structure shown. Values belong to the compound of their own block, whether it stands above or below them.

Columns and labels:
SIRT1 = molecular target: T1, SIRT1 (Homo sapiens, UniProt Q96EB6); experiment: Fluor-de-Lys biochemical sirtuin deacetylation assay, SIRT1 counter-screen; settings: for SIRT1 inhibition: 10 μM counter-screen
T1 sequence (Q96EB6 1-747): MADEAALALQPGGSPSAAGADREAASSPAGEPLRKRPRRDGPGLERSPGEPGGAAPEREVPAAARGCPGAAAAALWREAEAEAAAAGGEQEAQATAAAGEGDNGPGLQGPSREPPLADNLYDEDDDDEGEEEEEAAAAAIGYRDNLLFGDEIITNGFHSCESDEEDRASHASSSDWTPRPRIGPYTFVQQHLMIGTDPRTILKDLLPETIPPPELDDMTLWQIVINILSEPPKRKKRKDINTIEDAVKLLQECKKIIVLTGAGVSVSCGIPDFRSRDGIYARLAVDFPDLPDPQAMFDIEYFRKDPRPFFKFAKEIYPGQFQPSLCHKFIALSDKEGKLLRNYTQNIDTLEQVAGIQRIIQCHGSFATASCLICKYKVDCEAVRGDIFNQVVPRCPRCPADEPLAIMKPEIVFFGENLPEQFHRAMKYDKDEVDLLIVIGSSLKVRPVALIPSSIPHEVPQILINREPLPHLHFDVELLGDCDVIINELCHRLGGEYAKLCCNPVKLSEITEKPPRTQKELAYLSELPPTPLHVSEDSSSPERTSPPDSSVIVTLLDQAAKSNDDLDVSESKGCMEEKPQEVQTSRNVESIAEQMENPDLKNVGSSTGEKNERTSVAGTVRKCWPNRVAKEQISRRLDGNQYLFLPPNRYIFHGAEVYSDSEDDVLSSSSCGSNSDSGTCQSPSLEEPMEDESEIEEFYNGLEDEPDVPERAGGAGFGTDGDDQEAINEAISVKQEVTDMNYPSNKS
Protocol: (§1) To evaluate the potency and selectivity of the synthesized compounds robust, sensitive, and quantitative, biochemical sirtuin deacetylation assays were employed. (SIRT2 then SIRT1 and SIRT3 for selectivity). Sirtuin activity was assessed using the Fluor-de-Lys assay with recombinant active enzymes SIRT1, SIRT2, and the catalytically active fragment of SIRT3, as described in the literature. […] AK-1 was included as the reference compound with each assay. […] Those compounds also were subjected to SIRT1 and SIRT3 assays to determine sirtuin selectivity.
(§2) As discussed above, Tables 1-10 are presented and followed by details relating to the synthesis and characterization of compounds prepared. Inhibition assays and related testing of such compounds are conducted according to well-known literature protocols including those found in Silverman, et al., Biorg. Med. Chem. Lett. 22 (2012) 2789-2793 and the references cited therein, such references and tests incorporated herein by reference.

[1] = molecular target: T2, catalytically active fragment of SIRT3 (Homo sapiens, UniProt Q9NTG7); experiment: Fluor-de-Lys biochemical sirtuin deacetylation assay, SIRT3 counter-screen; settings: 10 μM counter-screen
T2 construct: the catalytically active fragment of SIRT3
T2 sequence (Q9NTG7 118-380 limits assumed): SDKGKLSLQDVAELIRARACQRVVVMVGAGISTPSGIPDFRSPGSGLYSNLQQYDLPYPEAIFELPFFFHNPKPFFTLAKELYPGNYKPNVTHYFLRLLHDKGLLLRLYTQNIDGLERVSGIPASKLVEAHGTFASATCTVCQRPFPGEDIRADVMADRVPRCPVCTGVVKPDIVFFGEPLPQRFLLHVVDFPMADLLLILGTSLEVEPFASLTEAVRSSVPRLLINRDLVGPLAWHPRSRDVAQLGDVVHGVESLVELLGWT
Protocol: as §1, §2

[2] = Microsomal stability screen, human; settings: 1 μM
[3] = Microsomal stability screen, mouse; settings: 1 μM
SIRT2 = molecular target: T3, SIRT2 (Homo sapiens, UniProt Q8IXJ6); experiment: Fluor-de-Lys biochemical sirtuin deacetylation assay, SIRT2
T3 construct: recombinant active enzymes SIRT1, SIRT2, and the catalytically active fragment of SIRT3
T3 sequence (Q8IXJ6 1-389): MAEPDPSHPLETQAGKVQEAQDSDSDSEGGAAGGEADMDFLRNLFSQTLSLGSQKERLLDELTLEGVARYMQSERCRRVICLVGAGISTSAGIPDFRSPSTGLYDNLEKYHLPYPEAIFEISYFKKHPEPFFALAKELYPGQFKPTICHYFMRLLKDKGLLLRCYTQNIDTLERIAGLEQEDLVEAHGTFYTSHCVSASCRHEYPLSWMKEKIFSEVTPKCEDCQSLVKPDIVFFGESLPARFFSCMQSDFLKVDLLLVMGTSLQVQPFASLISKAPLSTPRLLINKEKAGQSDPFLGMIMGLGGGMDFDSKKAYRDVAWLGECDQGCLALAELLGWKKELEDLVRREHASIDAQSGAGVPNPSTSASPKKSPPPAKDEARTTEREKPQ

PBS Express solubility = settings: aqueous buffer, kinetic from dmso stock
[4] = Microsomal intrinsic clearance, human; settings: for microsomal CLint at 1 μM / half-life at 1 μM: human, microsomes
[5] = Microsomal intrinsic clearance, mouse; settings: for microsomal CLint at 1 μM / half-life at 1 μM: mouse, microsomes
[6] = sulfone, sulfoxide, thioether derivatives of C2-8 scaffold

inhibition at 10 µM (SIRT2): 0%
melting point: 228 to 229 °C (dec.)
Compound: CC(=O)c1ccc(COc2cncc(C(=O)Nc3ccc(C#N)cc3)c2)cc1 [Compound 216u, 5-((4-acetylbenzyl)oxy)-N-(4-cyanophenyl)nicotinamide]

inhibition at 10 µM (SIRT2): 15%
melting point: 199 to 201 °C
Compound: N#Cc1ccc(COc2cc(O)cc(C(=O)Nc3ccc(C#N)cc3)c2)cc1 [Compound 216w, 3-((4-cyanobenzyl)oxy)-N-(4-cyanophenyl)-5-hydroxybenzamide]

inhibition at 10 µM (SIRT2): 64%
melting point: 173 to 174 °C
Compound: N#Cc1ccc(NC(=O)c2cccc(OCc3ccc(F)c(F)c3)c2)cc1 [Compound 216z, N-(4-cyanophenyl)-3-((3,4-difluorobenzyl)oxy)benzamide]

inhibition at 10 µM (SIRT2): 41%
melting point: 173 to 174 °C
Compound: N#Cc1ccc(NC(=O)c2cccc(NCc3ccc(F)cc3)c2)cc1 [Compound 221a, N-(4-cyanophenyl)-3-((4-fluorobenzyl)amino)benzamide]

inhibition at 10 µM (SIRT2): 75%
melting point: 176 to 177 °C
Compound: CN(Cc1ccc(F)cc1)c1cccc(C(=O)Nc2ccc(C#N)cc2)c1 [Compound 221c, N-(4-cyanophenyl)-3-((4-fluorobenzyl)(methyl)amino)benzamide]

More lines, now with the values behind:

Compound: O=C(Nc1nccs1)c1cccc(S(=O)(=O)Nc2ccc(Cl)cc2)c1 [Compound 31, 3-(N-(4-chlorophenyl)sulfamoyl)-N-(thiazol-2-yl)benzamide]
inhibition at 10 µM (SIRT1; 10 μM): 65%
SIRT3 inhibition [1]: totally inactive

Compound: O=C(Nc1ccc(Cl)cn1)c1cccc(S(=O)(=O)Nc2ccc(Cl)cn2)c1 [Compound 41, N-(5-chloropyridin-2-yl)-3-(N-(5-chloropyridin-2-yl)sulfamoyl)benzamide]
SIRT3 inhibition [1]: minimal SIRT3 inhibition

Compound: CN(c1ccc(F)cc1)S(=O)(=O)c1cccc(C(=O)Nc2ccc(Cl)cn2)c1 [Compound 43, N-(5-chloropyridin-2-yl)-3-(N-(4-fluorophenyl)-N-methylsulfamoyl)benzamide]
SIRT1 inhibition (SIRT1): minimal SIRT1 inhibition

Compound: CN(c1ccc(F)cc1)S(=O)(=O)c1cccc(C(=O)Nc2ccc(C#N)cc2)c1 [Compound 47, N-(4-Cyanophenyl)-3-(N-(4-fluorophenyl)-N-methylsulfamoyl)benzamide]
Mean remaining parent NADPH-free (%) [2]: 89%
Mean remaining parent with NADPH (%) [2]: 16%

Compound: CN(c1ccc(Cl)cc1)S(=O)(=O)c1cccc(C(=O)Nc2ccc(C(F)(F)F)cn2)c1 [Compound 56, 3-(N-(4-chlorophenyl)-N-methylsulfamoyl)-N-(5-(trifluoromethyl)pyridin-2-yl)benzamide]
SIRT1 inhibition (SIRT1): minimal SIRT1 inhibition

Compound: CN(c1ccc(Cl)cc1)S(=O)(=O)c1cccc(C(=O)Nc2ccc(O)cn2)c1 [Compound 58, 3-(N-(4-chlorophenyl)-N-methylsulfamoyl)-N-(5-hydroxypyridin-2-yl)benzamide]
SIRT3 inhibition [1]: minimal SIRT3 inhibition

Compound: CN(c1ccc(Cl)cc1)S(=O)(=O)c1cccc(C(=O)Nc2ccc(C#N)cn2)c1 [Compound 71, 3-(N-(4-Chlorophenyl)-N-methylsulfamoyl)-N-(5-cyanopyridin-2-yl)benzamide]
Mean remaining parent NADPH-free (%) [2]: 91%
Mean remaining parent with NADPH (%) [2]: 2%
Mean remaining parent NADPH-free (%) [3]: 96%
Mean remaining parent with NADPH (%) [3]: 1%

Compound: CC(=O)c1ccc(N(C)S(=O)(=O)c2cccc(C(=O)Nc3ccc(Cl)cc3)c2)cc1 [Compound 102, 3-(N-(4-Acetylphenyl)-N-methylsulfamoyl)-N-(4-chlorophenyl)benzamide]
Mean remaining parent NADPH-free (%) [2]: 94%
Mean remaining parent with NADPH (%) [2]: 12%
Mean remaining parent NADPH-free (%) [3]: 108%
Mean remaining parent with NADPH (%) [3]: 0%

Compound: CC(=O)c1ccc(N(C)S(=O)(=O)c2cccc(C(=O)Nc3ccc(Cl)cn3)c2)cc1 [Compound 103, 3-(N-(4-Acetylphenyl)-N-methylsulfamoyl)-N-(5-chloropyridin-2-yl)benzamide]
Mean remaining parent NADPH-free (%) [2]: 82%
Mean remaining parent with NADPH (%) [2]: 12%
Mean remaining parent NADPH-free (%) [3]: 91%
Mean remaining parent with NADPH (%) [3]: 0%

Compound: CC(=O)c1ccc(N(C)S(=O)(=O)c2cccc(C(=O)Nc3ccc(C#N)cc3)c2)cc1 [Compound 106, 3-(N-(4-Acetylphenyl)-N-methylsulfamoyl)-N-(4-cyanophenyl)benzamide]
SIRT1 inhibition (SIRT1): minimal SIRT1 inhibition
SIRT3 inhibition [1]: minimal SIRT3 inhibition

Compound: N#Cc1ccc(NC(=O)c2cccc(S(=O)(=O)Cc3ccc(Cl)cc3)c2)cc1 [Compound 174, 3-((4-Chlorobenzyl)sulfonyl)-N-(4-cyanophenyl)benzamide]
inhibition at 10 µM (SIRT2; [6]): 40%
potency compared with 59 (SIRT2; SIRT2 assay (61 also cell-based tubulin deacetylation assay)): more potent than 59
SIRT2 inhibition potency compared with AK-1 (SIRT2; dose-response, five doses, side-by-side with AK-1): equal or just slightly better potency
solubility at 45 min (PBS Express solubility): 62.5 µM (≈ 25.7 µg/mL)
solubility at 16 h (PBS Express solubility): 62.5 µM (≈ 25.7 µg/mL)
Mean remaining parent NADPH-free (%) [2]: 93%
Mean remaining parent with NADPH (%) [2]: 89%
Mean remaining parent NADPH-free (%) [3]: 100%
Mean remaining parent with NADPH (%) [3]: 68%

Compound: C[S+]([O-])c1ccc(NC(=O)c2cccc(SCc3ccc(Cl)cc3)c2)cc1 (stereo not shown) [Compound 182, 3-((4-chlorobenzyl)thio)-N-(4-(methylsulfinyl)phenyl)benzamide]
inhibition at 10 µM (SIRT2; [6]): 60%
Fraction remaining, last time point (%) (Plasma half life; Mouse plasma, 5 μM): 62%
half-life at 5 μM (Plasma half life; mouse, plasma): 89 min
solubility at 45 min (PBS Express solubility): 15.6 µM (≈ 6.49 µg/mL)
solubility at 16 h (PBS Express solubility): 15.6 µM (≈ 6.49 µg/mL)
% remaining 60 min ([4]; 1 μM, 60 min): 5.3%
microsomal CLint at 1 μM ([4]; NADPH-dependent CLint): 241 µL/min/mg
half-life at 1 μM ([4]; NADPH-dependent T1/2 (min)): 9.6 min
microsomal CLint at 1 μM ([4]; NADPH-free CLint): 39 µL/min/mg
half-life at 1 μM ([4]; NADPH-free T1/2 (min)): 59 min
% remaining 60 min ([5]; 1 μM, 60 min): 0.8%
microsomal CLint at 1 μM ([5]; NADPH-dependent CLint): 445 µL/min/mg
half-life at 1 μM ([5]; NADPH-dependent T1/2 (min)): 5.2 min
microsomal CLint at 1 μM ([5]; NADPH-free CLint): 58 µL/min/mg
half-life at 1 μM ([5]; NADPH-free T1/2 (min)): 40 min

Compound: CC(C)[N+](C)(CCOC(=O)C1c2ccccc2Oc2ccccc21)C(C)C [Propantheline, reference compound]
Fraction remaining, last time point (%) (Plasma half life; Mouse plasma, 5 μM): 3.4%
Plasma T1/2 (Plasma half life; Mouse plasma, 5 μM): 18 min
